Data published in patent US20110130380A1, “Heteroaryl Kinase Inhibitors” (priority 2009, published 2011).

These compounds were tested against Cdk9/cyclinT1 (Homo sapiens, UniProt P50750) (assay: Cdk9/cyclinT1 IMAP Protocol (fluorescence polarization kinase assay)). Conditions: Cdk9_cyclinT1_IC50, Table V; generated using one of the two Cdk9/cyclinT1 assays (IMAP or Alpha Screen), not stated which; ATP 6 uM.
Chain of Cdk9/cyclinT1 (P50750 whole entry): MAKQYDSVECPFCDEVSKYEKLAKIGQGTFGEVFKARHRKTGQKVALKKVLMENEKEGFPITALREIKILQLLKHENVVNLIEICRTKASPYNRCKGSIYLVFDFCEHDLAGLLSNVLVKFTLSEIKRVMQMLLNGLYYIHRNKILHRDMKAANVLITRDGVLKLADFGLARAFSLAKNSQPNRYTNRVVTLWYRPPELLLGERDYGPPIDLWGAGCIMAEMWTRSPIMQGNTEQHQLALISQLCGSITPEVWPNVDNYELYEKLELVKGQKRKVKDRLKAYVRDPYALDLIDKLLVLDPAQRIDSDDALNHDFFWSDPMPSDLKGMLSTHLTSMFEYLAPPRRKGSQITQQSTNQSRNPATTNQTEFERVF
Chain of Cdk9/cyclinT1 (O60563 whole entry partner): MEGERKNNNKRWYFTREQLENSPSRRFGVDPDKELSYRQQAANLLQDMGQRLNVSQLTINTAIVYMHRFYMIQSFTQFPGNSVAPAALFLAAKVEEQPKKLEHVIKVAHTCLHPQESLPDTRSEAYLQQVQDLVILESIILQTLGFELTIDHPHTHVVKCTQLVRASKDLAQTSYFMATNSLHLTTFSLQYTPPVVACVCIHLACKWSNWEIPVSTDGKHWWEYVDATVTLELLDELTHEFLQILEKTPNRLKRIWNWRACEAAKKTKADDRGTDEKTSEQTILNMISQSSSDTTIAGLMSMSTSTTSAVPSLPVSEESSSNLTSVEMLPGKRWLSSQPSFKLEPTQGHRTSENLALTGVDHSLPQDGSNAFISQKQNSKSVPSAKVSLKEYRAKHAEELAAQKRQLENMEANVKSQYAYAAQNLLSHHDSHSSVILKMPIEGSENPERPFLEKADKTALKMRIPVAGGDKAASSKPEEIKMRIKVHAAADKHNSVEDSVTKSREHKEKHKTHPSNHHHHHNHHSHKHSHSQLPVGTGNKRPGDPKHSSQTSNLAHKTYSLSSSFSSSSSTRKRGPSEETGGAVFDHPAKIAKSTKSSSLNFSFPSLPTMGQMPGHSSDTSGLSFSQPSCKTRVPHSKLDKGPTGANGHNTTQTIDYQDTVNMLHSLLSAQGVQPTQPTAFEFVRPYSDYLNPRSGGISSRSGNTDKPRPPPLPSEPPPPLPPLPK

| Compound | IC50 |
| --- | --- |
| CC(C)S(=O)(=O)N[C@@H]1CC[C@H](C(=O)Nc2cc(-c3nc(NCC4CCOCC4)ccc3Cl)c(Cl)cn2)C1 [Example 114, (1S,3R)-3-(Propane-2-sulfonylamino)-cyclopentanecarboxylic acid {3,5′-dichloro-6-[(tetrahydro-pyran-4-ylmethyl)-amino]-[2,4′]bipyridinyl-2′-yl}-amide] | < 8 nM |
| COC(=O)N1CCC[C@@H](C(=O)Nc2cc(-c3cccc(NCC4CCOCC4)n3)c(Cl)cn2)C1 [Example 84, (R)-3-{5′-Chloro-6-[(tetrahydro-pyran-4-ylmethyl)-amino]-[2,4′]bipyridinyl-2′-ylcarbamoyl}-piperidine-1-carboxylic acid methyl ester] | 419 nM |
| N[C@H]1CC[C@@H](C(=O)Nc2cc(-c3nc(NCC4CCOCC4)ccc3Cl)c(Cl)cn2)C1 [Example 100, (1R,3S)-3-Amino-cyclopentanecarboxylic acid {3,5′-dichloro-6-[(tetrahydro-pyran-4-ylmethyl)-amino]-[2,4′]bipyridinyl-2′-yl}-amide] | < 8 nM |
| C[C@@H](O)CNc1cccc(-c2cc(NC(=O)[C@@H]3CCCNC3)ncc2Cl)n1 [Example 29, (R)-Piperidine-3-carboxylic acid [5′-chloro-6-((R)-2-hydroxy-propylamino)-[2,4′]bipyridinyl-2′-yl]-amide] | 26 nM |
| O=C(Nc1cc(-c2cccc(NCc3ccccn3)n2)c(Cl)cn1)[C@@H]1CCCNC1 [Example 52, (R)-Piperidine-3-carboxylic acid {5′-chloro-6-[(pyridin-2-ylmethyl)-amino]-[2,4′]bipyridinyl-2′-yl}-amide] | 38 nM |
| O=C(Nc1cc(-c2nc(NCC3CCOCC3)ccc2Cl)c(Cl)cn1)[C@H]1CNC[C@H]1F [Example 102, (3R,4S)-4-Fluoro-pyrrolidine-3-carboxylic acid {3,5′-dichloro-6-[(tetrahydro-pyran-4-ylmethyl)-amino]-[2,4′]bipyridinyl-2′-yl}-amide] | 9 nM |
| O=C(Nc1cc(-c2cccc(NC[C@@H]3CCCO3)n2)c(Cl)cn1)[C@@H]1CCCNC1 [Example 27, (R)-Piperidine-3-carboxylic acid (5′-chloro-6-{[(S)-1-(tetrahydro-furan-2-yl)methyl]-amino}-[2,4′]bipyridinyl-2′-yl)-amide] | 21 nM |
| C[C@@H](Nc1cccc(-c2cc(NC(=O)[C@@H]3CCCNC3)ncc2Cl)n1)C1CCCCC1 [Example 76, (R)-Piperidine-3-carboxylic acid [5′-chloro-6-((R)-1-cyclohexyl-ethylamino)-[2,4′]bipyridinyl-2′-yl]-amide] | 15 nM |
| CO[C@H]1CNC[C@@H]1C(=O)Nc1cc(-c2cccc(NCC3CCOCC3)n2)c(Cl)cn1 [Example 138, (3S,4R)-4-Methoxy-pyrrolidine-3-carboxylic acid {5′-chloro-6-[(tetrahydro-pyran-4-ylmethyl)-amino]-[2,4′]bipyridinyl-2′-yl}-amide] | < 8 nM |
| C[C@@H]1CNC[C@H](C(=O)Nc2cc(-c3cccc(NCC4CCOCC4)n3)c(Cl)cn2)C1 (single isomer, unassigned) [Example 128] | 1 nM |
| O=C(Nc1cc(-c2cccc(NCc3cccc(OC(F)F)c3)n2)c(Cl)cn1)[C@@H]1CCCNC1 [Example 55, (R)-Piperidine-3-carboxylic acid [5′-chloro-6-(3-difluoromethoxy-benzylamino)-[2,4′]bipyridinyl-2′-yl]-amide] | < 8 nM |
| N[C@@H]1CC[C@H](C(=O)Nc2cc(-c3cccc(NCC4CCOCC4)n3)c(Cl)cn2)C1 [Example 47, (1S,3R)-3-Amino-cyclopentanecarboxylic acid {5′-chloro-6-[(tetrahydro-pyran-4-ylmethyl)-amino]-[2,4′]bipyridinyl-2′-yl}-amide] | < 8 nM |
| O=C(Nc1cc(-c2cccc(NCc3ccccc3F)n2)c(Cl)cn1)[C@@H]1CCCNC1 [Example 51, (R)-Piperidine-3-carboxylic acid [5′-chloro-6-(2-fluoro-benzylamino)-[2,4′]bipyridinyl-2′-yl]-amide] | 10 nM |
| O=C(Nc1cc(-c2cccc(NCC3CCOCC3)n2)c(Cl)cn1)C1CCCOC1 (stereo not shown) [Example 62, Tetrahydro-pyran-3-carboxylic acid {5′-chloro-6-[(tetrahydro-pyran-4-ylmethyl)-amino]-[2,4′]bipyridinyl-2′-yl}-amide] | 19 nM |
| C[C@@H](Nc1cccc(-c2cc(NC(=O)[C@@H]3CCCNC3)ncc2Cl)n1)C1CCOCC1 [Example 137, (R)-Piperidine-3-carboxylic acid {5′-chloro-6-[(R)-1-(tetrahydro-pyran-4-yl)-ethylamino]-[2,4′]bipyridinyl-2′-yl}-amide] | 11 nM |
| O=C(Nc1cc(-c2cccc(NCC3CCOCC3)n2)c(Cl)cn1)C1(F)CCCNC1 (stereo not shown) [Example 95, 3-Fluoro-piperidine-3-carboxylic acid {5′-chloro-6-[(tetrahydro-pyran-4-ylmethyl)-amino]-[2,4′]bipyridinyl-2′-yl}-amide] | 167 nM |
| O=C(Nc1cc(-c2cccc(NCc3cccc(F)c3)n2)c(Cl)cn1)C1CCCCC1 [Example 2, Cyclohexanecarboxylic acid [5′-chloro-6-(3-fluoro-benzylamino)-[2,4′]bipyridinyl-2′-yl]-amide] | 134 nM |
| CC(C)S(=O)(=O)N1CCC[C@H](C(=O)Nc2cc(-c3nc(NCC4CCOC(C)(C)C4)ccc3Cl)c(Cl)cn2)C1 (stereo partly drawn) [Example 139, (S)-1-(Propane-2-sulfonyl)-piperidine-3-carboxylic acid {3,5′-dichloro-6-[(2,2-dimethyl-tetrahydro-pyran-4-ylmethyl)-amino]-[2,4′]bipyridinyl-2′-yl}-amide] | < 8 nM |
| CC1(C)C[C@H](CNc2cccc(-c3cc(NC(=O)[C@@H]4CCCNC4)ncc3Cl)n2)CCO1 (single isomer, unassigned) [Example 115] | 1 nM |
| O=C(Nc1cc(-c2cccc(NCc3ccc(F)cc3)n2)c(Cl)cn1)[C@@H]1CCCNC1 [Example 53, (R)-Piperidine-3-carboxylic acid [5′-chloro-6-(4-fluoro-benzylamino)-[2,4′]bipyridinyl-2′-yl]-amide] | < 8 nM |
| COCCN1CCC[C@@H](C(=O)Nc2cc(-c3cccc(NCC4CCOCC4)n3)c(Cl)cn2)C1 [Example 16, (R)-1-(2-Methoxy-ethyl)-piperidine-3-carboxylic acid {5′-chloro-6-[(tetrahydro-pyran-4-ylmethyl)-amino]-[2,4′]bipyridinyl-2′-yl}-amide] | 855 nM |

More lines, now with the values ahead:

| IC50 | Compound |
| --- | --- |
| 9 nM | O=C(Nc1cc(-c2cccc(NCC3CCOCC3)n2)c(Cl)cn1)[C@@H]1CC[C@@H](C(F)(F)F)NC1 (racemic) [Example 161, (3R,6S)-/(3S,6R)-6-Trifluoromethyl-piperidine-3-carboxylic acid {5′-chloro-6-[(tetrahydro-pyran-4-ylmethyl)-amino]-[2,4′]bipyridinyl-2′-yl}-amide] |
| 1 nM | COC(=O)N1CCC[C@H](C(=O)Nc2cc(-c3nc(NC[C@@H]4CCOC(C)(C)C4)ccc3Cl)c(Cl)cn2)C1 (single isomer, unassigned) [Example 174] |
| 1 nM | CC1(C)COC[C@@H](CNc2cccc(-c3cc(NC(=O)[C@@H]4CCCNC4)ncc3Cl)n2)O1 (single isomer, unassigned) [Example 233] |
| 6 nM | C[C@H]1CC[C@H](C(=O)Nc2cc(-c3cccc(NC[C@H]4CCOC(C)(C)C4)n3)c(Cl)cn2)CN1 (single isomer, unassigned) [Example 245] |
| 2 nM | O=C(Nc1cc(-c2cccc(NCC3CCOCC3)n2)c(Cl)cn1)C1CCCCNC1 (stereo not shown) [Example 193, Azepane-3-carboxylic acid {5′-chloro-6-[(tetrahydro-pyran-4-ylmethyl)-amino]-[2,4′]bipyridinyl-2′-yl}-amide] |
| 4 nM | O=C(Nc1cc(-c2nc(NCC3CCOCC3)ccc2Cl)ccn1)[C@@H]1CCCNC1 [Example 167, (R)-Piperidine-3-carboxylic acid {3-chloro-6-[(tetrahydro-pyran-4-ylmethyl)-amino]-[2,4′]bipyridinyl-2′-yl}-amide] |
| 1 nM | CC1(C)COC[C@@H](CNc2nc(-c3cc(NC(=O)[C@@H]4CCCNC4)ncc3Cl)ccc2F)O1 (single isomer, unassigned) [Example 263] |
| 1 nM | CC1(C)C[C@@H](CNc2nc(-c3cc(NC(=O)[C@@H]4CCCNC4)ncc3Cl)ccc2F)CCO1 (single isomer, unassigned) [Example 216] |
| 1 nM | O=C(Nc1cc(-c2cccc(NCC3CCOCC3)n2)c(Cl)cn1)[C@@H]1CN[C@H](CF)C1 [Example 178, (3S,5S)-5-Fluoromethyl-pyrrolidine-3-carboxylic acid {5′-chloro-6-[(tetrahydro-pyran-4-ylmethyl)-amino]-[2,4′]bipyridinyl-2′-yl}-amide] |
| 1 nM | CC[C@H]1CC[C@@H](C(=O)Nc2cc(-c3ccc(F)c(NCC4CCOCC4)n3)c(Cl)cn2)CN1 (racemic) [Example 252, (3R,6S)-/(3S,6R)-6-Ethyl-piperidine-3-carboxylic acid {5′-chloro-5-fluoro-6-[(tetrahydro-pyran-4-ylmethyl)-amino]-[2,4′]bipyridinyl-2′-yl}-amide] |
| 1 nM | C[C@@H]1CC[C@@H](C(=O)Nc2cc(-c3cccc(NC[C@@H]4CCOC(C)(C)C4)n3)c(Cl)cn2)CN1 (mixture of isomers) [Example 225, (3R,6R)-/(3S,6S)-6-Methyl-piperidine-3-carboxylic acid {5′-chloro-6-[((R)-2,2-dimethyl-tetrahydro-pyran-4-ylmethyl)-amino]-[2,4′]bipyridinyl-2′-yl}-amide] |
| 11 nM | CO[C@@H]1CNC[C@H](C(=O)Nc2cc(-c3cccc(NCC4CCOCC4)n3)c(Cl)cn2)C1 (racemic) [Example 184, (3R,5S)-/(3S,5R)-5-Methoxy-piperidine-3-carboxylic acid {5′-chloro-6-[(tetrahydro-pyran-4-ylmethyl)-amino]-[2,4′]bipyridinyl-2′-yl}-amide] |

Same assay, conditions: Cdk9_cyclinT1_IC50, generated using one of the two Cdk9/cyclinT1 assays (IMAP or Alpha Screen), not specified per value; ATP 6 uM

| IC50 | Compound |
| --- | --- |
| < 8 nM | CC(C)C(=O)Nc1cc(-c2cc(NCC3CCOCC3)cnc2Cl)c(Cl)cn1 [Example 313, N-{2,5′-Dichloro-5-[(tetrahydro-pyran-4-ylmethyl)-amino]-[3,4′]bipyridinyl-2′-yl}-isobutyramide] |
